Numbers after ± are expanded uncertainties.
Conditions: 101.33 kPa, Liquid, Alternating current cell with electrodes

SMILES	electrical conductivity (1131 K)	electrical conductivity (1136 K)	electrical conductivity (1151 K)	electrical conductivity (1169 K)	electrical conductivity (1173 K)	electrical conductivity (1184 K)	electrical conductivity (1190 K)	electrical conductivity (1194 K)	electrical conductivity (1198 K)	electrical conductivity (1206 K)	electrical conductivity (1210 K)	electrical conductivity (1217 K)	electrical conductivity (1221 K)	electrical conductivity (1229 K)	electrical conductivity (1232 K)	electrical conductivity (1233 K)	electrical conductivity (1237 K)	electrical conductivity (1244 K)	electrical conductivity (1245 K)	electrical conductivity (1269 K)	other results
[F-].[Li+] [lithium fluoride]	855 ± 9 S/m	858 ± 9 S/m	868 ± 9 S/m	877 ± 9 S/m	880 ± 9 S/m	886 ± 9 S/m	888 ± 9 S/m	890 ± 9 S/m	892 ± 9 S/m	896 ± 9 S/m	897 ± 9 S/m	900 ± 9 S/m	899 ± 9 S/m	905 ± 9 S/m	907 ± 9 S/m	907 ± 9 S/m	908 ± 9 S/m	911 ± 9 S/m	911 ± 9 S/m	918 ± 9 S/m	electrical conductivity (1258 K): 916 ± 9 S/m; electrical conductivity (1267 K): 918 ± 9 S/m; electrical conductivity (1283 K): 923 ± 9 S/m
[Br-].[K+] [potassium bromide]	190 ± 2 S/m	191 ± 2 S/m	194 ± 2 S/m	196 ± 2 S/m			200 ± 2 S/m		201 ± 2 S/m		202 ± 2 S/m		203 ± 2 S/m	204 ± 2 S/m		204 ± 2 S/m	205 ± 2 S/m		205 ± 2 S/m		
[I-].[K+] [potassium iodide]																				167 ± 2 S/m	electrical conductivity (1109 K): 158 ± 2 S/m; electrical conductivity (1126 K): 160 ± 2 S/m; electrical conductivity (1143 K): 161 ± 2 S/m; electrical conductivity (1152 K): 163 ± 2 S/m; electrical conductivity (1160 K): 164 ± 2 S/m; electrical conductivity (1170 K): 165 ± 2 S/m; electrical conductivity (1176 K): 165 ± 2 S/m; electrical conductivity (1186 K): 166 ± 2 S/m; electrical conductivity (1203 K): 166 ± 2 S/m; electrical conductivity (1225 K): 167 ± 2 S/m; electrical conductivity (1236 K): 167 ± 2 S/m; electrical conductivity (1246 K): 168 ± 2 S/m; electrical conductivity (1252 K): 167 ± 2 S/m
[Br-].[Rb+] [rubidium bromide]					151 ± 2 S/m	152 ± 2 S/m		153 ± 2 S/m		154 ± 2 S/m		154 ± 2 S/m			155 ± 2 S/m			156 ± 2 S/m		157 ± 2 S/m	electrical conductivity (1258 K): 157 ± 2 S/m
[I-].[Rb+] [rubidium iodide (RbI)]									127 ± 1 S/m		128 ± 1 S/m					130 ± 1 S/m					electrical conductivity (1126 K): 120 ± 1 S/m; electrical conductivity (1154 K): 122 ± 1 S/m; electrical conductivity (1166 K): 124 ± 1 S/m; electrical conductivity (1188 K): 126 ± 1 S/m; electrical conductivity (1216 K): 128 ± 1 S/m; electrical conductivity (1248 K): 132 ± 1 S/m; electrical conductivity (1260 K): 133 ± 1 S/m; electrical conductivity (1266 K): 133 ± 1 S/m; electrical conductivity (1297 K): 135 ± 1 S/m; electrical conductivity (1309 K): 136 ± 1 S/m
